In patent US11986482B2, “Method of promoting antitumor or anti-cancer immunity” (City University of Hong Kong, priority 2021, dated 2024):

Legend:
Rab27a = molecular target: T1, Rab27a (Homo sapiens, UniProt P51159); experiment: GST-SHD pulldown assay of Rab27a activity; type: cell-based; settings: HeLa cells, 1 μM
T1 construct: western blot analysis of Rab27a in HeLa cells treated with or without 6J1 (1 μM) through a GST-SHD pulldown assay; endogenous in cells; host or cells: HeLa cells
T1 sequence (P51159 1-221): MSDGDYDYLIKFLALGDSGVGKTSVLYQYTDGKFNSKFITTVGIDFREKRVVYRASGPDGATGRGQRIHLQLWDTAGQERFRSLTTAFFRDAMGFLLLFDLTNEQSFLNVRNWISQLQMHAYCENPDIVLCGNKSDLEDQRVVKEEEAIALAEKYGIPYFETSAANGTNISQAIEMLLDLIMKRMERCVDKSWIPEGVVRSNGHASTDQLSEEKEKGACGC
Protocol: It has previously been shown that interfering with endosomal trafficking promotes exosome secretion. Moreover, PD-L1 has been reported to be enriched in exosomes and secreted outside the cell. Thus, inventors speculate that 6J1 may induce the secretion of the PD-L1 trapped in the endosomal compartments via exosomes. To determine whether 6J1 may induce the secretion of PD-L1 via exosomes, HeLa cells are treated with or without 6J1 (1 μM) for 24 h. The supernatant is collected. Inventors purify the exosomes from the supernatant of HeLa cells by sequential centrifugation. The concentration of extracellular vesicle is determined using a Nanosight nanoparticle analyzer. And HeLa cells are treated with or without 6J1 (1 μM) for 48 h. The cell and supernatant are collected for Western Blot analysis. […] Moreover, the activity of Rab27a in HeLa cells treated with or without 6J1 (1 μM) is examined with a GST-SHD pulldown assay.

4T1 cells [1] = experiment: Extracellular vesicle concentration, Nanosight nanoparticle analyzer, 4T1 cells; type: cell-based, mouse; settings: 1 μM
Protocol: The current PD-L1 and PD1 therapies apply PD-L1 or PD1 monoclonal antibodies to block the PD-L1/PD1 signaling, which results in cytotoxic T cells recognizing and killing the tumor cells. […] First, flow cytometry-based quantification of plasma membrane levels of PD-L1 in 4T1 cells treated with or without 6J1 (1 μM) for 24 h. 4T1 cells are treated with or without 6J1 (1 μM) for 24 h. The supernatant is collected, and the concentration of extracellular vesicle is determined using a Nanosight nanoparticle analyzer in FIG. 8b. The exosomes are also collected and subjected to western blot analysis of the EVs marker and PD-L1 in FIG. 8c.
To assess whether the in vivo antitumor growth effect of 6J1 is related to its effect on PD-L1 in 4T1 cells, inventors knock out PD-L1 via CRISPR/Cas9 in 4T1 cells (FIG. 10a). 4T1-NC or 4T1-PD-L1 knockout cells are treated with or without 6J1 (1 μM) for 24 h. The supernatant is collected, and the concentration of extracellular vesicle is determined using a Nanosight nanoparticle analyzer. The exosomes are also collected and subjected to western blot analysis of the EVs marker and PD-L1. […] Inventors then transplant control or PD-L1-knockout 4T1 cells into the fat pad of syngeneic female Balb/c mice. The mice are randomly divided (n=5 per group) and treated with either buffer or 6J1 (30 mg/kg, daily) via oral gavage.
Therefore, it is possible that the increased exosomal PD-L1 secretion induced by 6J1 may still suppress the tumor-infiltrating T cell cytotoxicity in vivo, even though 6J1 reduces the cell surface expression level of PD-L1 on the tumor cells. To evaluate the role of exosomal PD-L1 in the tumor microenvironment and tumor progression in mice, inventors knock out Rab27a in 4T1 cells to inhibit the secretion of exosomes. 4T1-shNC or 4T1-shRab27A cells are treated with or without 6J1 (1 μM). The supernatant is collected, and the concentration of extracellular vesicle is determined using a Nanosight nanoparticle analyzer. […] Inventors analyze the plasma membrane levels of PD-L1 in 4T1-shNC or 4T1-shRab27A cells treated with or without 6J1 (1 μM). […]

4T1 cells [2] = experiment: 4T1-shNC or 4T1-shRab27A tumors in Balb/c nude mice; type: in vivo, mouse; settings: 30 mg/kg, daily, oral gavage
Protocol: Inventors also implant control or Rab27a-knockout 4T1 cells into the fat pads of female Balb/c nude mice. The mice are randomly divided (n=4 per group) and treated with either buffer or 6J1 (30 mg/kg, daily) via oral gavage.

[3] = tested on: HeLa, A549 and MDA-MB-231 cell lines; experiment: Cytotoxicity, Hochest 33342 cell number; type: cell-based; settings: 24 h or 48 h
Protocol: (§1) The inventors also test the cytotoxicity of 6J1 in several cancer cell lines, HeLa, A549 and MDA-MB-231 cell lines. Cells are grown in 96-well plates in triplicate and treated with or without 6J1 at the concentrations of 0, 0.01, 0.1, 1, 10 and 100 μM indicated for 24 h or 48 h. They are then stained with propidium iodide (PI) or Hochest 33342 to measure the cell death ratio and cell number, respectively. […] Inventors also test the cytotoxicity of 6J1 in 4T1 cells. 4T1 cells are plated in 96-well plates in triplicate and treated with or without 6J1 at the concentrations of 0, 0.01, 0.1, 1, 5, 10, 20, 40, 80 and 100 μM indicated for 24 h or 48 h. The cell viability was then quantified via the MTT assay.

4T1 cells [4] = experiment: Cell viability of 4T1 cells, MTT assay; type: cell-based; settings: ≤1 μM, 24 h or 48 h
Protocol: as §1

[5] = Repeated-dose oral gavage toxicity in rats, up to 7 days; settings: rat, in vivo
Protocol: Inventors also evaluate the toxicity profile following oral gavage administration of 6J1 at dose levels of 0 (vehicle), 150, 450, and 1000 mg/kg once daily for up to 7 consecutive days to rats. Rats of the 300 mg/kg group are tested separately from other groups (showing higher initial weight than other groups), and rats of 450 and 1000 mg/kg groups are terminated on day 4 due to several clinical findings.

For `OCCOCCN(c1ccccc1)c1nc(N/N=C/c2cccc(I)c2)nc(N2CCOCC2)n1` [Compound 6J1], the “activity of Rab27a-GTPase” value (Rab27a) was “significantly increases the activity of Rab27a-GTPase”, the “6J1-induced EVs secretion” value (4T1 cells [1]; 4T1-shRab27A cells) was “significantly inhibits 6J1-induced EVs secretion” and the “6J1-induced EVs secretion” value (4T1 cells [1]; PD-L1-knockout 4T1 cells, 24 h) was “does not affect 6J1-induced EVs secretion”. For the same molecule, the “anti-cancer effect of 6J1 or 6J1 with Rab27a knockout in immunocompromised mice” value (4T1 cells [2]) was “dramatically abolished”, the “cell proliferation (cell number)” value ([3]; 0.01-100 μM) was “inhibits cell proliferation in a concentration-dependent manner” and the “cell proliferation at effective concentrations” value ([3]; ≤1 μM, several cell types) was “only subtly inhibits cell proliferation”. The “proliferation of 4T1 cells” value (4T1 cells [4]) was “little effect”, the “findings at 450 and 1000 mg/kg” value [5] was “severe clinical findings” and the “therapeutic window in experimental animals” value [5] was “at least 10 fold”. The “clinical signs at 300 mg/kg” value ([5]; po, 300 mg/kg) was “soft feces, hunched posture, and reduced feces”, the “finding at 1000 mg/kg” value ([5]; po, 1000 mg/kg) was “mortality” and the “dose levels not tolerated on repeated daily dosing” value ([5]; po, 4 days) was at least 450 mg/kg. For the same molecule, the “repeated daily dosing considered tolerated up to” value ([5]; po, 7 days) was “up to 300 mg/kg”.
